Assay results published in the supplement of paper PMC8671470.

Experiments:
Conditions in all cases: 72 h
NOMO-1 [1] = assay: cell viability (% survival relative to DMSO control, bortezomib = 0%); higher = less cytotoxic
In short: (§1)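 Reported values are percent survival from duplicate wells, averaged. Fifteen myeloid leukaemia cell lines were treated in 384-well plates with compounds at 1, 10, 100, 1000 or 10000 nM for 72 h at 37 °C in 5% CO2. Signals from CellTiter-Glo luminescence were scaled with vehicle as 100% and a 10 µM positive control as 0%.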

KG-1 [2] = assay: as above
In short: as §1

LAMA-84 [3] = assay: as above
In short: as §1

THP-1 [4] = assay: as above
In short: as §1

K-562 [5] = assay: as above
In short: as §1

Mono-Mac-6 [6] = assay: as above
In short: as §1

ML-2 [7] = assay: as above
In short: as §1

BV-173 [8] = assay: as above
In short: as §1

KU-812 [9] = assay: as above
In short: as §1

HL-60 [10] = assay: as above
In short: as §1

MV4-11 [11] = assay: as above
In short: as §1

HEL [12] = assay: as above
In short: as §1

SHI-1 [13] = assay: as above
In short: as §1

KCL-22 [14] = assay: as above
In short: as §1

MOLM-13 [15] = assay: as above
In short: as §1

NOMO-1 [16] = system: NOMO-1
In short: (§2)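 For the IC50, dose–response curves were fitted with a log-logistic model. The data came from fifteen myeloid leukaemia cell lines grown in RPMI 1640 at densities in the linear growth range and incubated in 384-well plates for 72 h at 37 °C under 5% CO2. Doses were five tenfold steps from 1 to 10,000 nM in duplicate, and luminescent ATP viability was normalised to vehicle and to a positive control at 10 µM before four-parameter fitting.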

KG-1 [17] = system: KG-1
In short: as §2

LAMA-84 [18] = system: LAMA-84
In short: as §2

THP-1 [19] = system: THP-1
In short: as §2

K-562 [20] = system: K-562
In short: as §2

Mono-Mac-6 [21] = system: Mono-Mac-6
In short: as §2

ML-2 [22] = system: ML-2
In short: as §2

BV-173 [23] = system: BV-173
In short: as §2

KU-812 [24] = system: KU-812
In short: as §2

HL-60 [25] = system: HL-60
In short: as §2

MV4-11 [26] = system: MV4-11
In short: as §2

HEL [27] = system: HEL
In short: as §2

SHI-1 [28] = system: SHI-1
In short: as §2

KCL-22 [29] = system: KCL-22
In short: as §2

MOLM-13 [30] = system: MOLM-13
In short: as §2

C=CC(=O)c1ccc(O)cc1 [4-Acryloylphenol]
cell viability [%]
Conditions	1 nM	10 nM	100 nM	1000 nM	10000 nM
BV-173 [8]	82.2	86.6	104	93	-1.1
HEL [12]	80	90.5	94.7	115	26.6
HL-60 [10]	90	80.9	97.5	105	94.6
K-562 [5]	86.2	85.5	101	114	66.7
KCL-22 [14]	86.1	89.5	102	124	28.2
KG-1 [2]	83.7	92.7	99.8	114	86.2
KU-812 [9]	82.9	97.5	96.4	97.7	36.1
LAMA-84 [3]	86.7	91.9	99.9	105	56.7
ML-2 [7]	90	90.7	105	125	46.9
MOLM-13 [15]	81.7	79.4	83.1	124	78.7
MV4-11 [11]	91	89.9	94.3	137	-1.55
Mono-Mac-6 [6]	86.3	99.1	111	103	54.6
NOMO-1 [1]	88	92.6	107	102	2.21
SHI-1 [13]	99.7	92.7	102	114	103
THP-1 [4]	89.8	88.1	102	99.4	72.8

Conditions	IC50 (cell viability) [µM]
BV-173 [23]	3.1
HEL [27]	6.6
HL-60 [25]	> 10
K-562 [20]	> 10
KCL-22 [29]	6.68
KG-1 [17]	> 10
KU-812 [24]	7.96
LAMA-84 [18]	> 10
ML-2 [22]	9.62
MOLM-13 [30]	> 10
MV4-11 [26]	4.22
Mono-Mac-6 [21]	> 10
NOMO-1 [16]	3.44
SHI-1 [28]	> 10
THP-1 [19]	> 10

CC(=O)Nc1nc(C)c(-c2ccc(Cl)c(S(=O)(=O)NCCO)c2)s1 [PIK93]
cell viability [%]
Conditions	1 nM	10 nM	100 nM	1000 nM	10000 nM
BV-173 [8]	119	103	95.8	45.6	9.29
HEL [12]	111	94	96.8	74.5	33.1
HL-60 [10]	119	120	84.2	50.7	3.89
K-562 [5]	134	98.9	110	82.3	31.9
KCL-22 [14]	132	99.4	100	64.2	20.7
KG-1 [2]	93.9	106	100	80.8	32.6
KU-812 [9]	92.6	93.9	94.7	80.1	29.2
LAMA-84 [3]	113	95.3	102	90.6	55.8
ML-2 [7]	106	98.8	92.6	38.3	8.96
MOLM-13 [15]	129	111	89.9	50.2	0.72
MV4-11 [11]	96.3	95.7	84.5	51.1	0.217
Mono-Mac-6 [6]	95.8	90.9	85.5	52.4	17.6
NOMO-1 [1]	101	96.7	92.7	69.1	22.9
SHI-1 [13]	104	94.6	97.3	57.6	13.4
THP-1 [4]	105	102	112	74.7	24.5

Conditions	IC50 (cell viability) [µM]
BV-173 [23]	0.792
HEL [27]	2.19
HL-60 [25]	0.935
K-562 [20]	2.66
KCL-22 [29]	1.12
KG-1 [17]	2.56
KU-812 [24]	2.69
LAMA-84 [18]	8.06
ML-2 [22]	0.607
MOLM-13 [30]	0.959
MV4-11 [26]	1.09
Mono-Mac-6 [21]	1.02
NOMO-1 [16]	2.05
SHI-1 [28]	1.09
THP-1 [19]	1.51

OC[C@H]1O[C@@H](n2cnc3c2N=CNC[C@H]3O)C[C@@H]1O [Pentostatin]
cell viability [%]
Conditions	1 nM	10 nM	100 nM	1000 nM	10000 nM
BV-173 [8]	102	97.4	117	94.5	101
HEL [12]	105	89.4	102	103	142
HL-60 [10]	99.5	99.7	98.2	100	118
K-562 [5]	95.3	106	111	99.2	107
KCL-22 [14]	99.1	89.9	101	94.3	105
KG-1 [2]	101	104	97.9	108	97.8
KU-812 [9]	96.4	99.5	112	95.1	115
LAMA-84 [3]	102	99.6	111	101	108
ML-2 [7]	99.2	86.6	99.1	108	123
MOLM-13 [15]	86.9	99.7	101	110	114
MV4-11 [11]	95.8	104	107	105	103
Mono-Mac-6 [6]	104	94.2	105	91.9	99.3
NOMO-1 [1]	105	94.3	113	98.8	106
SHI-1 [13]	93.9	100	94.5	100	111
THP-1 [4]	102	93.5	111	98.3	103

Conditions	IC50 (cell viability) [µM]
BV-173 [23]	> 10
HEL [27]	> 10
HL-60 [25]	> 10
K-562 [20]	> 10
KCL-22 [29]	> 10
KG-1 [17]	> 10
KU-812 [24]	> 10
LAMA-84 [18]	> 10
ML-2 [22]	> 10
MOLM-13 [30]	> 10
MV4-11 [26]	> 10
Mono-Mac-6 [21]	> 10
NOMO-1 [16]	> 10
SHI-1 [28]	> 10
THP-1 [19]	> 10

O=c1cc(N2CCOCC2)oc2c(-c3ccccc3)cccc12
cell viability [%]
Conditions	1 nM	10 nM	100 nM	1000 nM	10000 nM
BV-173 [8]	176	95.7	1.14	95.6	48
HEL [12]	133	92.1	23.1	98.9	78.1
HL-60 [10]	130	118	103	0.801	0.404
K-562 [5]	135	104	90.3	6.74	0.516
KCL-22 [14]	123	104	90.5	98.9	45.1
KG-1 [2]	114	106	82.8	90.8	28.4
KU-812 [9]	115	100	56.3	95.1	54.8
LAMA-84 [3]	127	108	46.1	84.2	65.3
ML-2 [7]	143	103	17.6	89.4	54.9
MOLM-13 [15]	125	119	77.5	1.16	0.26
MV4-11 [11]	131	120	0.364	-0.297	-0.0959
Mono-Mac-6 [6]	116	103	95.3	83.2	40.7
NOMO-1 [1]	122	96	9.05	90.4	57.1
SHI-1 [13]	123	102	106	92.8	30.7
THP-1 [4]	116	94.1	99.8	95.8	59.3

Conditions	IC50 (cell viability) [µM]
BV-173 [23]	0.0237
HEL [27]	0.0487
HL-60 [25]	0.334
K-562 [20]	0.291
KCL-22 [29]	9.05
KG-1 [17]	4.97
KU-812 [24]	> 10
LAMA-84 [18]	> 10
ML-2 [22]	0.0328
MOLM-13 [30]	0.185
MV4-11 [26]	0.0392
Mono-Mac-6 [21]	3.75
NOMO-1 [16]	0.0252
SHI-1 [28]	3.6
THP-1 [19]	> 10

O=C1C(SCCO)=C(SCCO)C(=O)c2ccccc21
cell viability [%]
Conditions	1 nM	10 nM	100 nM	1000 nM	10000 nM
BV-173 [8]	107	106	98.5	0.154	-0.205
HEL [12]	110	107	103	69.8	-0.489
HL-60 [10]	123	115	122	101	-0.447
K-562 [5]	98.9	98.8	112	20.6	0.0893
KCL-22 [14]	112	101	89.9	38.3	-0.332
KG-1 [2]	107	90.2	94.9	20.2	-0.961
KU-812 [9]	104	89.1	99.2	20.9	-0.694
LAMA-84 [3]	105	95.6	101	36.1	1.35
ML-2 [7]	101	96.2	95.8	2.66	-0.682
MOLM-13 [15]	104	101	107	5.3	-0.664
MV4-11 [11]	96	113	83.9	0.103	-0.335
Mono-Mac-6 [6]	111	102	104	30	-0.648
NOMO-1 [1]	105	99.7	100	7.84	-0.348
SHI-1 [13]	99.5	103	95.4	16.8	-0.637
THP-1 [4]	100	98.2	106	10.8	-1.37

Conditions	IC50 (cell viability) [µM]
BV-173 [23]	0.309
HEL [27]	1.51
HL-60 [25]	3.23
K-562 [20]	0.549
KCL-22 [29]	0.664
KG-1 [17]	0.507
KU-812 [24]	0.53
LAMA-84 [18]	0.747
ML-2 [22]	0.307
MOLM-13 [30]	0.381
MV4-11 [26]	0.219
Mono-Mac-6 [21]	0.664
NOMO-1 [16]	0.369
SHI-1 [28]	0.45
THP-1 [19]	0.424
